Where two headings read alike, the source gives them in different places.
Columns and labels:
Format in all cases: cell-based
Streptococcus sobrinus [1] = experiment: Minimum inhibitory concentration (MIC), serial two-fold dilution with resazurin test; conditions: for MIC: Streptococcus sobrinus
Streptococcus mutans [2] = experiment: as above; conditions: for MIC: Streptococcus mutans
Streptococcus mutans [3] = experiment: Minimum biofilm inhibitory concentration (MBIC), crystal violet staining; conditions: S. mutans; for MBIC in indicvdual replicates Replicate 1 / MBIC in indicvdual replicates Replicate 2 / MBIC in indicvdual replicates Replicate 3 / MBIC in indicvdual replicates Replicate 4 / MBIC in indicvdual replicates Replicate 5: 24 h incubation; for MBIC Median value: median of 5 replicates
Method: (§1) Group of examples No 4 - 6. Anti-biofilm activity of the substance or of the composition of substances was assessed from minimum biofilm inhibitory concentration (MBIC) and from the rate of biofilm formation on hydroxyapatite disks.
(§2) Reference strains Streptococcus mutans and S. Sobrinus were used as the bacterial models.
(§3) Example No 4. MBIC as the measure of the substance effect on the bacterial biofilm is equal to minimum concentration inhibiting the biofilm formation or disruption of already formed biofilm during 24 hour incubation.
(§4) MBIC of individual components of the composition, specifically, naringenin, guava leaf CO2 extract, and enzymes lysozyme and labiase can be determined according to the procedure: • 1) All stages of nutritive medium preparation, preparation and incubation of bacterial cultures in 96-well microtiter plates with the test composition of the substances added into nutritive medium were as described in Example 1. • 2) All controls for the culture growth, for purity of nutritive medium and for solvents were as described in Example 1. • 3) Incubate the plates at 37 °C for 24 ± 4 h without the use the orbital shaker. • 4) Stain the bacterial biofilm accumulated on bottom of the plate wells with crystal violet. For this purpose remove the planktonic culture from the plate wells after 24 h incubation and wash with two portions of phosphate-buffered saline (PBS, pH 7.4) to remove remaining planktonic culture. Then dry the plate for 12-15 hours. Add 100 µL of 0.5% crystal violet solution (Sigma-Aldrich, USA), dissolved in 96% ethanol followed by incubation for 20 minutes. After removal of crystal violet solution from the wells wash the plate with 3-4 portions of PBS. After drying add […] of 96% ethanol into the wells to elute the crystal violet, which has bound to the biofilm. • 5) Shake the plate on the orbital shaker for 2 minutes at 37 °C and then measure optical density (OD) at the wavelength of 550nm using multimodal microplate reader against the blank (the well, where the sterile medium LB was incubated and then exposed to all staining manipulations). Since the serial dilution method with 2-fold dilution steps is used for MBIC determination, the difference between the adjacent dilution is considered as non-significant, and MBIC is defined as the median value calculated for 5 independent biological replicates of the experiment. • 6) The following concentrations were tested: naringenin and guava leaf extract at concentrations 1.6, 0.8, 0.4, 0.2, 0.1, 0.05 mg/mL; lysozyme and labiase at concentrations 4.0, 2.0, 1.0, 0.5, 0.25, 0.125 mg/mL. Well-known antibacterial components were used as controls: chlorohexidine bigluconate at concentrations 64, 32, 16, 8, 4 µg/mL; zinc gluconate at concetrations 5.0, 2.5, 1.25, 0.6, 0.3, 0.15 mg/mL.

Streptococcus sobrinus [4] = experiment: as above; conditions: S. sobrinus; for MBIC in indicvdual replicates Replicate 1 / MBIC in indicvdual replicates Replicate 2 / MBIC in indicvdual replicates Replicate 3 / MBIC in indicvdual replicates Replicate 4 / MBIC in indicvdual replicates Replicate 5: 24 h incubation; for MBIC Median value: median of 5 replicates
Method: as §1, §2, §3, §4

[5] = 24 h, read-out: MIC value in individual replicate Replicate 1
[6] = 24 h, read-out: MIC value in individual replicate Replicate 2
[7] = 24 h, read-out: MIC value in individual replicate Replicate 3
[8] = 24 h, read-out: MIC value in individual replicate Replicate 4
[9] = 24 h, read-out: MIC value in individual replicate Replicate 5

Compound: N=C(NCCCCCCNC(=N)NC(=N)Nc1ccc(Cl)cc1)NC(=N)Nc1ccc(Cl)cc1 [Chlorohexidine bigluconate, chlorohexidine bigluconate]
- MIC (Streptococcus sobrinus [1]; [5]): 4 mg/L
- MIC (Streptococcus sobrinus [1]; [6]): 4 mg/L
- MIC (Streptococcus sobrinus [1]; [7]): 4 mg/L
- MIC (Streptococcus sobrinus [1]; [8]): 8 mg/L
- MIC (Streptococcus sobrinus [1]; [9]): 4 mg/L
- MIC (Streptococcus sobrinus [1]; read-out: MIC Median value): 4 mg/L
- MIC (Streptococcus mutans [2]; [5]): 8 mg/L
- MIC (Streptococcus mutans [2]; [6]): 8 mg/L
- MIC (Streptococcus mutans [2]; [7]): 8 mg/L
- MIC (Streptococcus mutans [2]; [8]): 8 mg/L
- MIC (Streptococcus mutans [2]; [9]): 8 mg/L
- MIC (Streptococcus mutans [2]; read-out: MIC Median value): 8 mg/L
- MBIC in indicvdual replicates Replicate 1 (Streptococcus mutans [3]): 8.0 µg/mL
- MBIC in indicvdual replicates Replicate 2 (Streptococcus mutans [3]): 8.0 µg/mL
- MBIC in indicvdual replicates Replicate 3 (Streptococcus mutans [3]): 8.0 µg/mL
- MBIC in indicvdual replicates Replicate 4 (Streptococcus mutans [3]): 8.0 µg/mL
- MBIC in indicvdual replicates Replicate 5 (Streptococcus mutans [3]): 4.0 µg/mL
- MBIC Median value (Streptococcus mutans [3]): 8.0 µg/mL
- MBIC in indicvdual replicates Replicate 1 (Streptococcus sobrinus [4]): 4.0 µg/mL
- MBIC in indicvdual replicates Replicate 2 (Streptococcus sobrinus [4]): 4.0 µg/mL
- MBIC in indicvdual replicates Replicate 3 (Streptococcus sobrinus [4]): 8.0 µg/mL
- MBIC in indicvdual replicates Replicate 4 (Streptococcus sobrinus [4]): 4.0 µg/mL
- MBIC in indicvdual replicates Replicate 5 (Streptococcus sobrinus [4]): 4.0 µg/mL
- MBIC Median value (Streptococcus sobrinus [4]): 4.0 µg/mL

Compound: zinc gluconate
- MIC value in individual replicate Replicate 1 (Streptococcus sobrinus [1]; S. sobrinus, 24 h at 37 °C): 5000 mg/L
- MIC value in individual replicate Replicate 2 (Streptococcus sobrinus [1]; S. sobrinus, 24 h at 37 °C): 5000 mg/L
- MIC value in individual replicate Replicate 3 (Streptococcus sobrinus [1]; S. sobrinus, 24 h at 37 °C): 5000 mg/L
- MIC value in individual replicate Replicate 4 (Streptococcus sobrinus [1]; S. sobrinus, 24 h at 37 °C): 5000 mg/L
- MIC value in individual replicate Replicate 5 (Streptococcus sobrinus [1]; S. sobrinus, 24 h at 37 °C): 5000 mg/L
- MIC Median value (Streptococcus sobrinus [1]; S. sobrinus, median of 5 replicates): 5000 mg/L
- MIC value in individual replicate Replicate 1 (Streptococcus mutans [2]; S. mutans, 24 h at 37 °C): 600 mg/L
- MIC value in individual replicate Replicate 2 (Streptococcus mutans [2]; S. mutans, 24 h at 37 °C): 600 mg/L
- MIC value in individual replicate Replicate 3 (Streptococcus mutans [2]; S. mutans, 24 h at 37 °C): 300 mg/L
- MIC value in individual replicate Replicate 4 (Streptococcus mutans [2]; S. mutans, 24 h at 37 °C): 300 mg/L
- MIC value in individual replicate Replicate 5 (Streptococcus mutans [2]; S. mutans, 24 h at 37 °C): 300 mg/L
- MIC Median value (Streptococcus mutans [2]; S. mutans, median of 5 replicates): 300 mg/L
- MBIC in indicvdual replicates Replicate 1 (Streptococcus mutans [3]): 1250 µg/mL
- MBIC in indicvdual replicates Replicate 2 (Streptococcus mutans [3]): 1250 µg/mL
- MBIC in indicvdual replicates Replicate 3 (Streptococcus mutans [3]): 600 µg/mL
- MBIC in indicvdual replicates Replicate 4 (Streptococcus mutans [3]): 600 µg/mL
- MBIC in indicvdual replicates Replicate 5 (Streptococcus mutans [3]): 600 µg/mL
- MBIC Median value (Streptococcus mutans [3]): 600 µg/mL
- MBIC in indicvdual replicates Replicate 1 (Streptococcus sobrinus [4]): 5000 µg/mL
- MBIC in indicvdual replicates Replicate 2 (Streptococcus sobrinus [4]): 5000 µg/mL
- MBIC in indicvdual replicates Replicate 3 (Streptococcus sobrinus [4]): 2500 µg/mL
- MBIC in indicvdual replicates Replicate 4 (Streptococcus sobrinus [4]): 2500 µg/mL
- MBIC in indicvdual replicates Replicate 5 (Streptococcus sobrinus [4]): 2500 µg/mL
- MBIC Median value (Streptococcus sobrinus [4]): 2500 µg/mL

— patent publication EP4458353A1, “ANTICARIOGENIC SYNERGETIC COMPOSITION FOR ORAL CARE” (SkyLab AG, priority 2023, dated 2024)
